Measured values from ChEMBL document CHEMBL5537169, “Structure-Activity Relationships and Discovery of (S)-6-Isopropyl-2-methoxy-3-(3-methoxypropoxy)-10-oxo-5,10-dihydro-6H-pyrido[1,2-h][1,7]naphthyridine-9-carboxylic Acid (AB-452), a Novel Orally Available HBV RNA Destabilizer” (J Med Chem, 2024).
pEC50, pIC50: −log10 of the molar value.

Key:
[1] = AUCinfinity in CD-1 mouse at 10 mg/kg,po measured at 0.083 to 24 hrs post administration by LC-MS/MS analysis; format: ADME, organism-based; conditions: in vivo, time 0.083-24 hrs
Hepatitis B virus = assay: Antiviral activity against HBV infected in human HepG2.2.15 cells assessed as inhibition of HBsAg level incubated for 6 days by microplate-based chemiluminescence immunoassay; format: functional, organism-based; conditions: HepG2 2.2.15, 144 h
[2] = Cmax in Beagle dog at 10 mg/kg,po measured at 0.083 to 24 hrs post administration by LC-MS/MS analysis; format: ADME, organism-based, Canis lupus familiaris; conditions: in vivo, time 0.083-24 hrs
[3] = AUCinfinity in Beagle dog at 10 mg/kg,po measured at 0.083 to 24 hrs post administration by LC-MS/MS analysis; format: ADME, organism-based, Canis lupus familiaris; conditions: in vivo, time 0.083-24 hrs
[4] = Half life in Beagle dog at 10 mg/kg,po measured at 0.083 to 24 hrs post administration by LC-MS/MS analysis; format: ADME, organism-based, Canis lupus familiaris; conditions: in vivo, time 0.083-24 hrs
[5] = Cmax in Beagle dog at 2 mg/kg,iv measured at 0.083 to 24 hrs post administration by LC-MS/MS analysis; format: ADME, organism-based, Canis lupus familiaris; conditions: in vivo, time 0.083-24 hrs
[6] = Half life in CD-1 mouse at 10 mg/kg,po measured at 0.083 to 24 hrs post administration by LC-MS/MS analysis; format: ADME, organism-based; conditions: in vivo, time 0.083-24 hrs
[7] = Oral bioavailability in Sprague-Dawley rat at 10 mg/kg measured at 0.083 to 24 hrs by LC-MS/MS analysis; format: ADME, organism-based; conditions: in vivo, time 0.083-24 hrs; for bioavailability: Sprague-Dawley
[8] = Cmax in CD-1 mouse at 10 mg/kg,po measured at 0.083 to 24 hrs post administration by LC-MS/MS analysis; format: ADME, organism-based; conditions: in vivo, time 0.083-24 hrs
[9] = Clearance in human liver microsomes at 0.3 uM pre-incubated for 10 mins followed by NADPH addition incubated for 60 mins by LC-MS/MS analysis; format: ADME, Microsome; conditions: time 70 min, read-out: CLH
[10] = Half life in Beagle dog at 2 mg/kg,iv measured at 0.083 to 24 hrs post administration by LC-MS/MS analysis; format: ADME, organism-based, Canis lupus familiaris; conditions: in vivo, time 0.083-24 hrs; for half-life: Beagle
[11] = Cardiotoxicity in Langendorff-perfused New Zealand White rabbit heart assessed as decrease in left ventricular contractility at 10 uM incubated for 45 mins by ECG analysis; format: toxicity, tissue-based, Oryctolagus cuniculus; set-up: scale not given: the % may be the effect or the level left; conditions: 0.75 h
[12] = Clearance in CD-1 mouse at 2 mg/kg,iv measured at 0.083 to 24 hrs post administration by LC-MS/MS analysis; format: ADME, organism-based; conditions: in vivo, time 0.083-24 hrs
[13] = Clearance in CD-1 mouse liver microsomes at 0.3 uM pre-incubated for 10 mins followed by NADPH addition incubated for 60 mins by LC-MS/MS analysis; format: ADME, Microsome; conditions: time 70 min, read-out: CLH
Cytochrome P450 2C19 = Cytochrome P450 2C19 (Homo sapiens, UniProt P33261); assay: Reversible inhibition of CYP2C19 in human liver microsomes using S-mephenytoin as substrate pre-incubated for 30 mins followed by NADPH addition and measured after 10 mins by LC-MS/MS analysis; format: ADME, Microsome
[14] = AUCinfinity in Sprague-Dawley rat at 10 mg/kg,po measured at 0.083 to 24 hrs post administration by LC-MS/MS analysis; format: ADME, organism-based; conditions: in vivo, time 0.083-24 hrs; for AUC(0-inf): Sprague-Dawley
[15] = Oral bioavailability in CD-1 mouse at 10 mg/kg measured at 0.083 to 24 hrs by LC-MS/MS analysis; format: ADME, organism-based; conditions: in vivo, time 0.083-24 hrs
[16] = Half life in Sprague-Dawley rat at 10 mg/kg,po measured at 0.083 to 24 hrs post administration by LC-MS/MS analysis; format: ADME, organism-based; conditions: Sprague-Dawley, in vivo, time 0.083-24 hrs
[17] = Cardiotoxicity in Langendorff-perfused New Zealand White rabbit heart assessed as decrease in left ventricular pressure at 10 uM incubated for 45 mins by ECG analysis; format: toxicity, tissue-based, Oryctolagus cuniculus; set-up: scale not given: the % may be the effect or the level left; conditions: 0.75 h
[18] = Drug accumulation in Beagle dog plasma assessed as fold change in drug uptake at 10 mg/kg,po measured at 0.083 to 24 hrs post administration by LC-MS/MS analysis; format: ADME, organism-based, Canis lupus familiaris; conditions: in vivo, time 0.083-24 hrs
Cytochrome P450 2B6 = target: T1, Cytochrome P450 2B6 (Homo sapiens, UniProt P20813); assay: Reversible inhibition of CYP2B6 in human liver microsomes using bupropion as substrate pre-incubated for 30 mins followed by NADPH addition and measured after 10 mins by LC-MS/MS analysis; format: ADME, Microsome
T1 sequence (P20813 whole entry): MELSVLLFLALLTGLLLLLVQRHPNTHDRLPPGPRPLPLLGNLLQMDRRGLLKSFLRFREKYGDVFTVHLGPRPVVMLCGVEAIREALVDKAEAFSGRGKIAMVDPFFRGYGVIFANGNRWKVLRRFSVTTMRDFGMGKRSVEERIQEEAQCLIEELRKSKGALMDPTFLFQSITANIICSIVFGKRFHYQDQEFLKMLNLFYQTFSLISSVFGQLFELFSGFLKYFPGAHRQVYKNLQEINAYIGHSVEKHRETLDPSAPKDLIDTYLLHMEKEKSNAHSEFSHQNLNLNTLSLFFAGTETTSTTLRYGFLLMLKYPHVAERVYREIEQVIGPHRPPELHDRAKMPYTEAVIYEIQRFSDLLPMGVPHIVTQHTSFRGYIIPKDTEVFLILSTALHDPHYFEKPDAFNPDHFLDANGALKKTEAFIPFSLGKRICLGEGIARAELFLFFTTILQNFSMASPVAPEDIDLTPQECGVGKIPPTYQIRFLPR

[19] = AUCinfinity in Beagle dog at 2 mg/kg,iv measured at 0.083 to 24 hrs post administration by LC-MS/MS analysis; format: ADME, organism-based, Canis lupus familiaris; conditions: in vivo, time 0.083-24 hrs; for AUC(0-inf): Beagle
[20] = Protein binding in human plasma assessed as fraction unbound at 2 uM incubated for 6 hrs by equilibrium dialysis based LC-MS/MS analysis; format: ADME, cell-free
[21] = Oral bioavailability in Beagle dog at 10 mg/kg measured at 0.083 to 24 hrs by LC-MS/MS analysis; format: ADME, organism-based, Canis lupus familiaris; conditions: in vivo, time 0.083-24 hrs
Cytochrome P450 1A2 = target: T2, Cytochrome P450 1A2 (Homo sapiens, UniProt P05177); assay: Reversible inhibition of CYP1A2 in human liver microsomes using phenacetin as substrate pre-incubated for 30 mins followed by NADPH addition and measured after 10 mins by LC-MS/MS analysis; format: ADME, Microsome
T2 sequence (P05177 whole entry): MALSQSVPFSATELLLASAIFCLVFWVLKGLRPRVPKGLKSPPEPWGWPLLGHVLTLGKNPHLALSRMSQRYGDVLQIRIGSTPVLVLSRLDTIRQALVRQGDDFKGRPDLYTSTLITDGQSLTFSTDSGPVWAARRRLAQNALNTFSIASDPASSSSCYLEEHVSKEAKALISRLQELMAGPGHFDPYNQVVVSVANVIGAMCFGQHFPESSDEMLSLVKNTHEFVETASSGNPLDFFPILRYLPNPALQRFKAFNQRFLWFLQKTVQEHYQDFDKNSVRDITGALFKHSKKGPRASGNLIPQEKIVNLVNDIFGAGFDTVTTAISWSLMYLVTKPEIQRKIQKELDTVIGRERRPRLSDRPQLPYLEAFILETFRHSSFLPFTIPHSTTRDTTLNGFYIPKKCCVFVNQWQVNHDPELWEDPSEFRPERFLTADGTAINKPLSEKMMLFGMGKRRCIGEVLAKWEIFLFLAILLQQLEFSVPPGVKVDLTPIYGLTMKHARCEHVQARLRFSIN

Chain of Cytochrome P450 2C19 (P33261 whole entry): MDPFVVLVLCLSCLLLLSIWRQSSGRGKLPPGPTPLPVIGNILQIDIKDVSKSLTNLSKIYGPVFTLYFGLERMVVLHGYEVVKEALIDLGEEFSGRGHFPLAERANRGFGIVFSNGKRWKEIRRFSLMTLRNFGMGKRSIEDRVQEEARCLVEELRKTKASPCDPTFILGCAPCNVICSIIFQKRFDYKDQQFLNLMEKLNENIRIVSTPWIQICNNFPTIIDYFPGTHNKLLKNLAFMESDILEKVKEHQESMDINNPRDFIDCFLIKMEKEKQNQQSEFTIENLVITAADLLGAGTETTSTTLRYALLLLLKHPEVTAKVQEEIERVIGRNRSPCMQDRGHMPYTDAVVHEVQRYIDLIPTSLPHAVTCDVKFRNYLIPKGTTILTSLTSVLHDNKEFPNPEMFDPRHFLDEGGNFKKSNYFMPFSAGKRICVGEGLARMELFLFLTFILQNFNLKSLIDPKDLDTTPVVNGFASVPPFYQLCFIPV

Compound	AUC(0-inf) [1] [µg·h/mL]	pEC50 (Hepatitis B virus)	Cmax [2] [µg/mL]	AUC(0-inf) [3] [µg·h/mL]	half-life [4] [h]	Cmax [5] [µg/mL]	half-life [6] [h]	Cmax [8] [µg/mL]	microsomal CLint at 0.3 µM [9] [µL/min/mg]	Activity [11]	clearance [12] [L/h/kg]	microsomal CLint at 0.3 µM [13] [µL/min/mg]	pIC50 (Cytochrome P450 2C19)	bioavailability [15] [%]	half-life [16] [h]	Activity [17] [%]	fold change (FC) [18]	pIC50 (Cytochrome P450 2B6)	fraction unbound at 6 h, 2 µM [20]	bioavailability [21] [%]	also measured
COCCCOc1cc2c(cc1Cl)-c1cc(=O)c(C(=O)O)cn1[C@H](C(C)C)CO2	5.88	7.92	3.13	10.7	1.7	2.06	1.2	0.702	5	20%	1.2	5	< 4.60	63	2.8	20	< 0.1	< 4.60	0.14	63	F ([7]; po, 10 mg/kg): 14%; half-life [10]: 1.4 h; AUC ([14]; po, 10 mg/kg): 10.3 µg·h/mL; AUC(0-inf) [19]: 3.37 µg·h/mL; pIC50 (Cytochrome P450 1A2): < 4.60
COCCCOc1cc2c(cc1OC)-c1cc(=O)c(C(=O)O)cn1[C@H](C(C)C)C2	6.15	8.92	4.03	13	1.6	1.5	2	1.84	2	20%	1.56	5	< 4.60	96	3.4	20	0.6	< 4.60	0.44	110	bioavailability [7]: 28%; t1/2 ([10]; iv, 2 mg/kg): 1.5 h; AUC(0-inf) [14]: 6.72 µg·h/mL; AUC ([19]; iv, 2 mg/kg): 2.362 µg·h/mL; pIC50 (Cytochrome P450 1A2): < 4.60
COCCCOc1cc2c(nc1OC)-c1cc(=O)c(C(=O)O)cn1[C@H](C(C)C)C2	5.68	9.00	6.74	31.5	2.8	2.31	5.8	1.11	3	Non-Toxic	1.8	2	< 4.60	99	3.4	20	7.5	< 4.60	0.5	98	bioavailability [7]: 80%; half-life [10]: 2.3 h; AUC(0-inf) [14]: 14.1 µg·h/mL; AUC(0-inf) [19]: 6.41 µg·h/mL; pIC50 (Cytochrome P450 1A2): < 4.60
